Results as given in patent publication US6906094B2, “1,2,4-tribsubstituted benzenes as inhibitors of 15-lipoxygenase” (Warner-Lambert Company, priority 2000, dated 2005).

Columns and labels:
human 15-LO = molecular target: T1, human 15-LO (Homo sapiens, UniProt P16050); assay: Human Lysate 15-LO Assay (HUM15LO); assay type: biochemical; details: recombinant human 15-LO, 174 μM linoleic acid, 15 minutes at 4° C., 13-HODE quantitated
T1 construct: made in house; host or cells: Sf9 insect cells (baculovirus, Bac-to-Bac)
T1 sequence (P16050 1-662): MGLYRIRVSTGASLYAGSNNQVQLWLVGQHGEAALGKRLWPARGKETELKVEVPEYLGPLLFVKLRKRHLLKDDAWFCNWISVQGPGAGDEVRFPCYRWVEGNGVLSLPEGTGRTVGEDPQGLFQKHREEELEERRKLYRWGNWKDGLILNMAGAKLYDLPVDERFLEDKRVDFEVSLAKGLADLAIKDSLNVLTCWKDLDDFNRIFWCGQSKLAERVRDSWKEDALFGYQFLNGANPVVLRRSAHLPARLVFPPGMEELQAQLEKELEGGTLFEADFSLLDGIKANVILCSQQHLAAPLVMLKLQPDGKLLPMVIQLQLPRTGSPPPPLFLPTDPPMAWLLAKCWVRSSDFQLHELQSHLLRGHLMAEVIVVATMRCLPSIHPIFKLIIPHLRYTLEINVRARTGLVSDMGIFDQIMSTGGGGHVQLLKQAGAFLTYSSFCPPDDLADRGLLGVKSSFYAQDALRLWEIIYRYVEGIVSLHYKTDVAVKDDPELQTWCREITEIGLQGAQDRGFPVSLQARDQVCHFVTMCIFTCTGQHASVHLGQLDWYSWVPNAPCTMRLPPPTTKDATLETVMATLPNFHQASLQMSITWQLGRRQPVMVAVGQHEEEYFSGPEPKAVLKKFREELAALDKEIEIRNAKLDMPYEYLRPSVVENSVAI
Outline: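 Baculovirus-expressed recombinant enzyme incubated with compound and 174 μM linoleic acid in PBS with 0.2% sodium cholate, 15 min at 4° C. 13-HODE product quantitated against an authentic standard curve. Percent inhibition derived relative to a compound-free control reaction.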

[1] = molecular target: T2, rabbit reticulocyte 15-LO (Oryctolagus cuniculus, UniProt P12530); assay: Rabbit Reticulocyte 15-LO Assay (H15LO); assay type: biochemical; details: 2 U rabbit reticulocyte 15-LO, 174 μM linoleic acid, 15 minutes at 4° C., 13-HODE quantitated
T2 construct: 15-LO is obtained from phenylhydrazine-treated rabbits and purified according to the method of Rapoport; from tissue; host or cells: reticulocytes of phenylhydrazine-treated rabbits
T2 sequence (P12530 1-663): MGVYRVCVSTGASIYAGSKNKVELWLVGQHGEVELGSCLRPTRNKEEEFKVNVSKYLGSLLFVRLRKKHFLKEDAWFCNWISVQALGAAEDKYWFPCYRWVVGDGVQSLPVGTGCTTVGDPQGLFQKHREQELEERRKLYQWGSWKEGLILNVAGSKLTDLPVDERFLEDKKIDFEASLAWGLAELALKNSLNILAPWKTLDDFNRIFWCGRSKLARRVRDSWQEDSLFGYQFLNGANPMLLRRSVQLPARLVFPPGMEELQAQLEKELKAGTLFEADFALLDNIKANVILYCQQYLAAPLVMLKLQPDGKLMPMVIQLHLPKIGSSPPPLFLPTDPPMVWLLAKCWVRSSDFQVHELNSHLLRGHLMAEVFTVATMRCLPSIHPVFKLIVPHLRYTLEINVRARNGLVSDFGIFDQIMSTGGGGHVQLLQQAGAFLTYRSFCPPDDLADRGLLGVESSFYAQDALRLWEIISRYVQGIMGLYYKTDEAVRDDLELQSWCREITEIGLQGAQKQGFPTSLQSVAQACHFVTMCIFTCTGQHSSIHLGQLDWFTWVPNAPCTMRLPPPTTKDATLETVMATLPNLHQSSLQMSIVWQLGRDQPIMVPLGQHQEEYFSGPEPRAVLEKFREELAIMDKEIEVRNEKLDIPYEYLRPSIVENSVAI
Outline: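 Rabbit reticulocyte 15-LO purified from phenylhydrazine-treated rabbits; 2 U enzyme incubated with 174 μM linoleic acid and test compound for 15 min at 4° C in PBS with 0.2% sodium cholate. Reaction stopped with mobile phase and triethyl phosphite; 13-HODE product quantitated by peak area against an authentic 13-HODE standard curve.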

| SMILES | IC50 (human 15-LO) [nM] | IC50 [1] [nM] | melting point [°C] |
| --- | --- | --- | --- |
| COc1ccc(C(=O)Nc2ccc(F)c(F)c2)cc1NS(N)(=O)=O [Example 55, Benzamide, 3-[(aminosulfonyl)amino]-N-(3,4-difluorophenyl)-4-methoxy] | 29 | 19 | 167 to 170 |
| COc1ccc(C(=O)Nc2ccc(F)c(F)c2)cc1NS(=O)(=O)NC(=O)Nc1cccc(Cl)c1 [Example 61, Benzamide, 3-[[[[[(3-chlorophenyl)amino]carbonyl]amino]sulfonyl]amino]-N-(3,4-difluorophenyl)-4-methoxy] | 39 | 13 | 193 to 196 |
